± gives the expanded uncertainty stated by the source.
Assays:
[1] = 303.15 K; 101.33 kPa; Liquid; Capillary tube (Ostwald / Ubbelohde) method
[2] = mn = molality of the nth substance listed, in mol/kg; settings: 303.15 K, 101 kPa, Liquid, Capillary tube (Ostwald / Ubbelohde) method

## C1COCCO1 [1,4-dioxane]
[1]
  viscosity: 1.075 ± 0.0079 mPa·s

## CCCCN [1-butanamine]
[1]
  viscosity: 0.4442 ± 0.0054 mPa·s

## CCCCNCCCC [dibutylamine]
[1]
  viscosity: 0.7584 ± 0.0071 mPa·s

## CCCNCCC [dipropylamine]
[1]
  viscosity: 0.5118 ± 0.0058 mPa·s

## CCCN [propan-1-amine]
[1]
  viscosity: 0.3527 ± 0.005 mPa·s

## C1CCOC1 [tetrahydrofuran]
[1]
  viscosity: 0.326 ± 0.0047 mPa·s

## CCCCN(CCCC)CCCC [tributylamine]
[1]
  viscosity: 1.167 ± 0.0097 mPa·s

## CCCCN(CCCC)CCCC [tributylamine] + C1COCCO1
[2]; m1 = 0.1229
  viscosity: 1.062 ± 0.0078 mPa·s
[2]; m1 = 0.2173
  viscosity: 1.05 ± 0.0078 mPa·s
[2]; m1 = 0.3227
  viscosity: 1.033 ± 0.0077 mPa·s
[2]; m1 = 0.4476
  viscosity: 1.023 ± 0.0077 mPa·s
[2]; m1 = 0.5768
  viscosity: 1.008 ± 0.0076 mPa·s
[2]; m1 = 0.7655
  viscosity: 0.9912 ± 0.0075 mPa·s
[2]; m1 = 0.8789
  viscosity: 0.9804 ± 0.0075 mPa·s
[2]; m1 = 1.028
  viscosity: 0.9659 ± 0.0074 mPa·s
[2]; m1 = 1.179
  viscosity: 0.9569 ± 0.0074 mPa·s

## CCN(CC)CC [triethylamine]
[1]
  viscosity: 0.3296 ± 0.0049 mPa·s

## CCN(CC)CC [triethylamine] + C1CCOC1
[2]; m1 = 0.1482
  viscosity: 0.327 ± 0.0047 mPa·s
[2]; m1 = 0.3064
  viscosity: 0.3293 ± 0.0047 mPa·s
[2]; m1 = 0.4546
  viscosity: 0.3307 ± 0.0047 mPa·s
[2]; m1 = 0.588
  viscosity: 0.3315 ± 0.0047 mPa·s
[2]; m1 = 0.7856
  viscosity: 0.3361 ± 0.0047 mPa·s
[2]; m1 = 0.8993
  viscosity: 0.3349 ± 0.0047 mPa·s
[2]; m1 = 1.056
  viscosity: 0.3376 ± 0.0048 mPa·s
[2]; m1 = 1.24
  viscosity: 0.3386 ± 0.0048 mPa·s
[2]; m1 = 1.418
  viscosity: 0.341 ± 0.0048 mPa·s

## CCN(CC)CC [triethylamine] + C1COCCO1
[2]; m1 = 0.159
  viscosity: 1.054 ± 0.0078 mPa·s
[2]; m1 = 0.2697
  viscosity: 1.042 ± 0.0077 mPa·s
[2]; m1 = 0.4098
  viscosity: 1.018 ± 0.0076 mPa·s
[2]; m1 = 0.5388
  viscosity: 0.998 ± 0.0075 mPa·s
[2]; m1 = 0.6616
  viscosity: 0.98 ± 0.0074 mPa·s
[2]; m1 = 0.8419
  viscosity: 0.955 ± 0.0073 mPa·s
[2]; m1 = 0.9909
  viscosity: 0.932 ± 0.0072 mPa·s
[2]; m1 = 1.135
  viscosity: 0.914 ± 0.0071 mPa·s
[2]; m1 = 1.27
  viscosity: 0.894 ± 0.0071 mPa·s

## CCCN(CCC)CCC [tripropylamine]
[1]
  viscosity: 0.5977 ± 0.0062 mPa·s

## CCCN(CCC)CCC [tripropylamine] + C1CCOC1
[2]; m1 = 0.1317
  viscosity: 0.3305 ± 0.0047 mPa·s
[2]; m1 = 0.2429
  viscosity: 0.3364 ± 0.0047 mPa·s
[2]; m1 = 0.3465
  viscosity: 0.3397 ± 0.0047 mPa·s
[2]; m1 = 0.4545
  viscosity: 0.3447 ± 0.0048 mPa·s
[2]; m1 = 0.5811
  viscosity: 0.3523 ± 0.0048 mPa·s
[2]; m1 = 0.6842
  viscosity: 0.3577 ± 0.0048 mPa·s
[2]; m1 = 0.8378
  viscosity: 0.3607 ± 0.0048 mPa·s
[2]; m1 = 0.9371
  viscosity: 0.3681 ± 0.0049 mPa·s
[2]; m1 = 1.114
  viscosity: 0.3753 ± 0.0049 mPa·s

## CCCN(CCC)CCC [tripropylamine] + C1COCCO1
[2]; m1 = 0.1093
  viscosity: 1.06 ± 0.0078 mPa·s
[2]; m1 = 0.2293
  viscosity: 1.045 ± 0.0077 mPa·s
[2]; m1 = 0.3509
  viscosity: 1.032 ± 0.0077 mPa·s
[2]; m1 = 0.4408
  viscosity: 1.022 ± 0.0076 mPa·s
[2]; m1 = 0.5919
  viscosity: 1.007 ± 0.0076 mPa·s
[2]; m1 = 0.7147
  viscosity: 0.9934 ± 0.0075 mPa·s
[2]; m1 = 0.8383
  viscosity: 0.9807 ± 0.0075 mPa·s
[2]; m1 = 0.9836
  viscosity: 0.9694 ± 0.0074 mPa·s
[2]; m1 = 1.151
  viscosity: 0.9571 ± 0.0074 mPa·s
